Patent US6586470B1, “Insecticidal composition” (Ecoval INC, priority 1998, dated 2003)

Test system: Northern corn root worm adults (diabrotica longiscornis)
Assay: Spray test on Northern corn root worm adults
Type: in vivo
Details: insects sprayed, inspected after 24 hours, amounts in grams/litre
Protocol: The insecticidal compositions being tested were formulated in aqueous solution. The amounts of the ingredients are specified in the examples, and unless stated otherwise, are expressed in grams/litre. The compositions were tested on Northern corn root worm adults (diabrotica longiscornis). The insects were treated and tested as indicated above.

Structure (SMILES)	% Control [%]	Alive	Dead	% Control (listed as acetic acid at 50 g/l)	% Control (listed as citric acid at 25 g/l)
CC(=O)O [Sample 1, acetic acid]	0	10	0	–	–
O=C(O)CC(O)(CC(=O)O)C(=O)O [Sample 2, citric acid]	0	10	0	–	–
CC(=O)O [Sample 15, acetic acid]	0	10	0	–	–
CC(=O)O [Sample 18, acetic acid]	30	7	3	partial control	–
O=C(O)CC(O)(CC(=O)O)C(=O)O [Sample 19, citric acid]	20	8	2	–	partial control
